According to PMC6112376, “Comprehensive Analyses and Prioritization of Tox21 10K Chemicals Affecting Mitochondrial Function by in-Depth Mechanistic Studies” (Environmental Health Perspectives, 2018):
Where two headings read alike, the source gives them in different places.

How the values were obtained:
HepG2 cells [1] = assay: cells; details: Homo sapiens; for IC50: HepG2, read-out: MMP assays IC50 (µM) HepG2; for Emax: HepG2, read-out: MMP assays efficacy (%) HepG2
HepG2 cells [2] = details: cited from earlier work
rat primary hepatocytes [3] = test system: rat primary hepatocytes
rat primary hepatocytes [4] = assay: MMP assay in rat primary hepatocytes; details: for IC50: Rattus norvegicus, Hepatocyte, read-out: MMP assays IC50 (µM) Rat Hepatocytes
[5] = read-out: MMP assays IC50 (µM), qHTS-HepG2
[6] = read-out: MMP assays IC50 (µM) qHTS-HepG2

Cc1cc(O)c2c3c4c(cc(O)c13)C(C)(C)C(=O)c1c(O)cc(O)c(c1-4)C2=O [Geliomycin]
IC50 (HepG2 cells [1]): 0.19 µM
Emax (HepG2 cells [1]): 94%
MMP assays efficacy (%) qHTS-HepG2 (HepG2 cells [2]): -120±11%
IC50 (HepG2 cells [2]; [5]): 0.52 ± 0.04 µM
MMP assays efficacy (%) Rat Hepatocytes (rat primary hepatocytes [3]): -101±18%
IC50 (rat primary hepatocytes [4]): 0.55 ± 0.31 µM

O=C(NC(=O)c1c(F)cccc1F)Nc1cc(Cl)c(OC(F)(F)C(F)C(F)(F)F)cc1Cl (stereo not drawn) [Lufenuron]
IC50 (HepG2 cells [1]): 14.1 µM
Emax (HepG2 cells [1]): 100%
MMP assays efficacy (%) qHTS-HepG2 (HepG2 cells [2]): -119±18%
IC50 (HepG2 cells [2]; [5]): 7.65 ± 0.7 µM
MMP assays efficacy (%) Rat Hepatocytes (rat primary hepatocytes [3]): -103±8%
IC50 (rat primary hepatocytes [4]): 45 ± 7.29 µM

CN(C)c1ccc(N)cc1 [N,N-Dimethyl-p-phenylenediamine]
IC50 (HepG2 cells [1]): 7.08 µM
Emax (HepG2 cells [1]): 109%
MMP assays efficacy (%) qHTS-HepG2 (HepG2 cells [2]): -100±15%
IC50 (HepG2 cells [2]; [5]): 9.1 ± 0.59 µM
MMP assays efficacy (%) Rat Hepatocytes (rat primary hepatocytes [3]): -69±29%
IC50 (rat primary hepatocytes [4]): 21.7 ± 15.7 µM

Cc1cc(NC(=O)C2=C(O)c3ccccc3S(=O)(=O)N2C)no1 [Isoxicam]
IC50 (HepG2 cells [1]): 2.75 µM
Emax (HepG2 cells [1]): 38%
MMP assays efficacy (%) qHTS-HepG2 (HepG2 cells [2]): -66±27%
IC50 (HepG2 cells [2]; [5]): 5.18 ± 2.9 µM
MMP assays efficacy (%) Rat Hepatocytes (rat primary hepatocytes [3]): -60±55%
IC50 (rat primary hepatocytes [4]): 4.92 ± 0.8 µM

CCCN(CCC)c1c([N+](=O)[O-])cc(C(F)(F)F)cc1[N+](=O)[O-] [Trifluralin]
IC50 (HepG2 cells [1]): 39.8 µM
Emax (HepG2 cells [1]): 78%
MMP assays efficacy (%) qHTS-HepG2 (HepG2 cells [2]): -53±8%
IC50 (HepG2 cells [2]; [5]): 46.7 ± 9.14 µM
MMP assays efficacy (%) Rat Hepatocytes (rat primary hepatocytes [3]): -53±24%
IC50 (rat primary hepatocytes [4]): 32.6 ± 23.1 µM

O=c1c(O)c(-c2ccc(O)cc2)oc2cc(O)cc(O)c12 [Kaempferol]
IC50 (HepG2 cells [1]): 6.76 µM
Emax (HepG2 cells [1]): 96%
MMP assays efficacy (%) qHTS-HepG2 (HepG2 cells [2]): -100±8%
IC50 (HepG2 cells [2]; [5]): 2.56 ± 3.04 µM
MMP assays efficacy (%) Rat Hepatocytes (rat primary hepatocytes [3]): -84±55%
IC50 (rat primary hepatocytes [4]): 24.1 ± 8.76 µM

Oc1ccc(C2(c3ccc(O)cc3)CCCCC2)cc1 [Bisphenol Z]
IC50 (HepG2 cells [1]): 19.9 µM
Emax (HepG2 cells [1]): 113%
MMP assays efficacy (%) qHTS-HepG2 (HepG2 cells [2]): -101±12%
IC50 (HepG2 cells [2]; [6]): 22.2 ± 5.51 µM
MMP assays efficacy (%) Rat Hepatocytes (rat primary hepatocytes [3]): -34±12%
IC50 (rat primary hepatocytes [4]): 14.7 ± 15.1 µM

O=C1C2(Cl)C3(Cl)C4(Cl)C(Cl)(Cl)C5(Cl)C3(Cl)C1(Cl)C5(Cl)C24Cl (stereo not drawn) [Kepone]
IC50 (HepG2 cells [1]): 2.82 µM
Emax (HepG2 cells [1]): 99%
MMP assays efficacy (%) qHTS-HepG2 (HepG2 cells [2]): -101±8%
IC50 (HepG2 cells [2]; [5]): 0.93 ± 0.65 µM
MMP assays efficacy (%) Rat Hepatocytes (rat primary hepatocytes [3]): -107±26%
IC50 (rat primary hepatocytes [4]): 10.2 ± 9.25 µM

O=C(NC(=O)c1c(F)cccc1F)Nc1cc(Cl)c(Oc2ncc(C(F)(F)F)cc2Cl)c(Cl)c1 [Chlorfluazuron]
IC50 (HepG2 cells [1]): 12.6 µM
Emax (HepG2 cells [1]): 98%
MMP assays efficacy (%) qHTS-HepG2 (HepG2 cells [2]): -114±19%
IC50 (HepG2 cells [2]; [6]): 8.93 ± 4.57 µM
MMP assays efficacy (%) Rat Hepatocytes (rat primary hepatocytes [3]): -79±42%
IC50 (rat primary hepatocytes [4]): 29.3 ± 1.99 µM

CN(C)c1ccc2nc3ccc(=[N+](C)C)cc-3sc2c1 [Methylene blue]
IC50 (HepG2 cells [1]): 2.75 µM
Emax (HepG2 cells [1]): 89%
MMP assays efficacy (%) qHTS-HepG2 (HepG2 cells [2]): -78±9%
IC50 (HepG2 cells [2]; [5]): 2.88 ± 1.33 µM
MMP assays efficacy (%) Rat Hepatocytes (rat primary hepatocytes [3]): inactive
MMP assays IC50 (µM) Rat Hepatocytes (rat primary hepatocytes [4]): inactive

CC(C)(C)CC(C)(C)c1ccc(O)cc1 [4-(1,1,3,3-Tetramethylbutyl)phenol]
IC50 (HepG2 cells [1]): 4.89 µM
Emax (HepG2 cells [1]): 100%
MMP assays efficacy (%) qHTS-HepG2 (HepG2 cells [2]): -103±8%
IC50 (HepG2 cells [2]; [6]): 4.25 ± 0.92 µM
MMP assays efficacy (%) Rat Hepatocytes (rat primary hepatocytes [3]): inactive
MMP assays IC50 (µM) Rat Hepatocytes (rat primary hepatocytes [4]): inactive

Oc1ccc(/C=C/c2cc(O)cc(O)c2)cc1 [Resveratrol]
IC50 (HepG2 cells [1]): 3.71 µM
Emax (HepG2 cells [1]): 33%
MMP assays efficacy (%) qHTS-HepG2 (HepG2 cells [2]): -66±11%
IC50 (HepG2 cells [2]; [5]): 1.6 ± 0.43 µM
MMP assays efficacy (%) Rat Hepatocytes (rat primary hepatocytes [3]): inactive
MMP assays IC50 (µM) Rat Hepatocytes (rat primary hepatocytes [4]): inactive

CC1(C)[C@H](C(=O)O[C@H](C#N)c2cccc(Oc3ccccc3)c2)[C@@H]1/C=C(\Cl)C(F)(F)F [lambda-Cyhalothrin]
IC50 (HepG2 cells [1]): 15.8 µM
Emax (HepG2 cells [1]): 58%
MMP assays efficacy (%) qHTS-HepG2 (HepG2 cells [2]): -68±22%
IC50 (HepG2 cells [2]; [5]): 24.4 ± 1.59 µM
MMP assays efficacy (%) Rat Hepatocytes (rat primary hepatocytes [3]): -56±14%
IC50 (rat primary hepatocytes [4]): 28.2 µM

O=c1oc2ccccc2c(O)c1C1CCCc2ccccc21 (stereo not drawn) [Coumatetralyl]
IC50 (HepG2 cells [1]): 35.5 µM
Emax (HepG2 cells [1]): 124%
MMP assays efficacy (%) qHTS-HepG2 (HepG2 cells [2]): -144±2%
IC50 (HepG2 cells [2]; [6]): 13.7 ± 4.84 µM
MMP assays efficacy (%) Rat Hepatocytes (rat primary hepatocytes [3]): -110±37%
IC50 (rat primary hepatocytes [4]): 13.8 ± 8.1 µM

N=C(N)NN=C1C=CC(=NNC(N)=S)C=C1 [Ambazone]
IC50 (HepG2 cells [1]): 3.98 µM
Emax (HepG2 cells [1]): 61%
MMP assays efficacy (%) qHTS-HepG2 (HepG2 cells [2]): -98±7%
IC50 (HepG2 cells [2]; [6]): 5.6 ± 3.23 µM
MMP assays efficacy (%) Rat Hepatocytes (rat primary hepatocytes [3]): -52±11%
IC50 (rat primary hepatocytes [4]): 1.98 ± 2.22 µM

O=c1c(-c2ccc(O)cc2)coc2cc(O)cc(O)c12 [Genistein]
IC50 (HepG2 cells [1]): 10 µM
Emax (HepG2 cells [1]): 96%
MMP assays efficacy (%) qHTS-HepG2 (HepG2 cells [2]): -101±1%
IC50 (HepG2 cells [2]; [5]): 6.34 ± 0.77 µM
MMP assays efficacy (%) Rat Hepatocytes (rat primary hepatocytes [3]): -70±41%
IC50 (rat primary hepatocytes [4]): 33.7 ± 19.5 µM

CO[C@H]1C[C@@H]2CC[C@@H](C)[C@@](O)(O2)C(=O)C(=O)N2CCCC[C@H]2C(=O)O[C@H]([C@H](C)C[C@@H]2CC[C@@H](OCCO)[C@H](OC)C2)CC(=O)[C@H](C)/C=C(\C)[C@@H](O)[C@@H](OC)C(=O)[C@H](C)C[C@H](C)/C=C/C=C/C=C/1C [Everolimus]
IC50 (HepG2 cells [1]): 27.5 µM
Emax (HepG2 cells [1]): 92%
MMP assays efficacy (%) qHTS-HepG2 (HepG2 cells [2]): -96±20%
IC50 (HepG2 cells [2]; [6]): 19.9 ± 2.83 µM
MMP assays efficacy (%) Rat Hepatocytes (rat primary hepatocytes [3]): -38±9%
IC50 (rat primary hepatocytes [4]): 13 ± 7.49 µM

O=[N+]([O-])c1ccc2c(c1)Cc1ccccc1-2 [Compound 2-Nitrofluorene]
IC50 (HepG2 cells [1]): 50.1 µM
Emax (HepG2 cells [1]): 41%
MMP assays efficacy (%) qHTS-HepG2 (HepG2 cells [2]): -53±5%
IC50 (HepG2 cells [2]; [6]): 12.2 ± 0.86 µM
MMP assays efficacy (%) Rat Hepatocytes (rat primary hepatocytes [3]): -57±0%
IC50 (rat primary hepatocytes [4]): 38.1 ± 9.22 µM

Oc1c(Cl)c(Cl)cc(Cl)c1Cl [2,3,5,6-Tetrachlorophenol]
IC50 (HepG2 cells [1]): 8.91 µM
Emax (HepG2 cells [1]): 92%
MMP assays efficacy (%) qHTS-HepG2 (HepG2 cells [2]): -94±3%
IC50 (HepG2 cells [2]; [6]): 6.42 ± 2.38 µM
MMP assays efficacy (%) Rat Hepatocytes (rat primary hepatocytes [3]): -77±36%
IC50 (rat primary hepatocytes [4]): 9.2 ± 2.96 µM

O=C(Nc1ccc(Cl)c(Cl)c1)c1cc(Cl)cc(Cl)c1O [3,5-Dichlorosalicyl-3,4-dichloroanilide]
IC50 (HepG2 cells [1]): 0.11 µM
Emax (HepG2 cells [1]): 93%
MMP assays efficacy (%) qHTS-HepG2 (HepG2 cells [2]): -105±6%
IC50 (HepG2 cells [2]; [6]): 0.22 ± 0.09 µM
MMP assays efficacy (%) Rat Hepatocytes (rat primary hepatocytes [3]): -67±6%
IC50 (rat primary hepatocytes [4]): 0.38 ± 0.03 µM

C[C@@H]1O[C@@H](O[C@H]2C[C@@H](O)[C@]3(CO)[C@H]4[C@H](O)C[C@]5(C)[C@@H](C6=CC(=O)OC6)CC[C@]5(O)[C@@H]4CC[C@]3(O)C2)[C@H](O)[C@H](O)[C@H]1O [Ouabain]
IC50 (HepG2 cells [1]): 0.22 µM
Emax (HepG2 cells [1]): 94%
MMP assays efficacy (%) qHTS-HepG2 (HepG2 cells [2]): -88±7%
IC50 (HepG2 cells [2]; [5]): 0.18 µM
MMP assays efficacy (%) Rat Hepatocytes (rat primary hepatocytes [3]): inactive
MMP assays IC50 (µM) Rat Hepatocytes (rat primary hepatocytes [4]): inactive

O=C=Nc1ccc(Cl)cc1 [4-Chlorophenyl isocyanate]
IC50 (HepG2 cells [1]): 0.71 µM
Emax (HepG2 cells [1]): 99%
MMP assays efficacy (%) qHTS-HepG2 (HepG2 cells [2]): -110±18%
IC50 (HepG2 cells [2]; [6]): 0.27 ± 0.11 µM
MMP assays efficacy (%) Rat Hepatocytes (rat primary hepatocytes [3]): -98±7%
IC50 (rat primary hepatocytes [4]): 1.56 ± 0.39 µM

CCCCCCc1ccc(-c2ccc(C#N)cc2)cc1 [4-Hexyl-4'-cyanobiphenyl]
IC50 (HepG2 cells [1]): 31.6 µM
Emax (HepG2 cells [1]): 59%
MMP assays efficacy (%) qHTS-HepG2 (HepG2 cells [2]): -109±6%
IC50 (HepG2 cells [2]; [6]): 42.5 ± 15.4 µM
MMP assays efficacy (%) Rat Hepatocytes (rat primary hepatocytes [3]): -56±24%
IC50 (rat primary hepatocytes [4]): 17.5 ± 15.6 µM

CO[C@H]1C[C@@H]2CC[C@@H](C)[C@@](O)(O2)C(=O)C(=O)N2CCCC[C@H]2C(=O)O[C@H]([C@H](C)C[C@@H]2CC[C@@H](O)[C@H](OC)C2)CC(=O)[C@H](C)/C=C(\C)[C@@H](O)[C@@H](OC)C(=O)[C@H](C)C[C@H](C)/C=C/C=C/C=C/1C [Sirolimus]
IC50 (HepG2 cells [1]): 17.3 µM
Emax (HepG2 cells [1]): 95%
MMP assays efficacy (%) qHTS-HepG2 (HepG2 cells [2]): -95±3%
IC50 (HepG2 cells [2]; [5]): 20.1 ± 2.07 µM
MMP assays efficacy (%) Rat Hepatocytes (rat primary hepatocytes [3]): -61±8%
IC50 (rat primary hepatocytes [4]): 20.6 ± 1.68 µM
